Measured values as given in the supplement of paper PMC7840683.
Structures can show the parent of a compound that is named as a salt.

Tested on: HepaRG
Assay: LDH release cytotoxicity, % of total lysis control; higher = more cytotoxic
Details: 48 h
Outline: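 Single-lot HepaRG cells on collagen I-coated 96-well plates were exposed for 48 h in duplicate, in serum-free induction medium with 0.5% DMSO, to eight-point half-log series (test chemicals top 100 µM). Total lysis wells received 0.1% Triton X, and LDH leakage into 50 µL spent medium was read as resorufin fluorescence (CytoTox-ONE, Tecan Safire). Percent cytotoxicity was normalized to on-plate vehicle and total lysis controls and averaged over the duplicates.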

S=C([S-])NCCNC(=S)[S-].S=C([S-])NCCNC(=S)[S-].[Mn+2].[Zn+2] [Mancozeb]
Details	LDH release cytotoxicity [%]
0.01581 µM	-1.38
0.05 µM	-1.29
0.1581139 µM	-2.2
0.5 µM	-0.828
1.5811388 µM	30.3
5 µM	68.2
15.8114 µM	72.55
50 µM	77.11

CC(C)(C)OOC(=O)c1ccccc1 [tert-Butyl perbenzoate]
Details	LDH release cytotoxicity [%]
0.03162 µM	-1.33
0.1 µM	-1.77
0.3162278 µM	-1.063
1 µM	-2.35
3.16228 µM	-1.04
10 µM	-1.63
31.6228 µM	-0.865
100 µM	0.38

Nc1ccc(Nc2ccccc2)cc1 [N-Phenyl-1,4-benzenediamine]
Details	LDH release cytotoxicity [%]
0.03162 µM	-1.18
0.1 µM	-0.818
0.3162278 µM	-1.06
1 µM	-0.838
3.16228 µM	-0.438
10 µM	-0.107
31.6228 µM	1.04
100 µM	3.97

C=CCOC(Cn1ccnc1)c1ccc(Cl)cc1Cl (stereo unspecified) [Imazalil]
Details	LDH release cytotoxicity [%]
0.03162 µM	-1.02
0.1 µM	-0.85
0.3162278 µM	-0.00888
1 µM	-0.601
3.16228 µM	-0.652
10 µM	0.29
31.6228 µM	8.422
100 µM	69.6

Cc1oc2c(NC(=O)c3c(Cl)cccc3Cl)cccc2c1C(C)(C)O
Details	LDH release cytotoxicity [%]
0.03162 µM	-1.37
0.1 µM	-0.99
0.3162278 µM	-1.56
1 µM	-1.94
3.16228 µM	-2.03
10 µM	-0.5
31.6228 µM	13.1
100 µM	33.7

[Cl][Hg][Cl] [Mercuric chloride]
Details	LDH release cytotoxicity [%]
0.03162 µM	-0.633
0.1 µM	0.0218
0.3162278 µM	-0.338
1 µM	-0.378
3.16228 µM	0.165
10 µM	-0.398
31.6228 µM	-1.52
100 µM	-4.6

CCOS(=O)(=O)OCC [Diethyl sulfate]
Details	LDH release cytotoxicity [%]
0.03162 µM	-1.93
0.1 µM	-1.47
0.3162278 µM	-1.68
1 µM	-2.05
3.16228 µM	-1.61
10 µM	-1.77
31.6228 µM	-1.5
100 µM	0.71

CCN(CC)CCO [N,N-Diethylethanolamine]
Details	LDH release cytotoxicity [%]
0.03162 µM	-0.085
0.1 µM	-0.79
0.3162278 µM	-0.301
1 µM	-0.496
3.16228 µM	-0.856
10 µM	-0.12
31.6228 µM	0.244
100 µM	1.74

CCCCCCCCOC(=O)c1ccccc1C(=O)OCCCCCCCC [Di-n-octyl phthalate]
Details	LDH release cytotoxicity [%]
0.03162 µM	-0.293
0.1 µM	-1.33
0.3162278 µM	-0.746
1 µM	-0.29
3.16228 µM	-1.1
10 µM	-0.705
31.6228 µM	-0.176
100 µM	5.1

CCCCOCCOCCO [2-(2-Butoxyethoxy)ethanol]
Details	LDH release cytotoxicity [%]
0.03162 µM	-0.987
0.1 µM	-1.94
0.3162278 µM	-1.79
1 µM	-2.09
3.16228 µM	-2.29
10 µM	-1.67
31.6228 µM	-1.25
100 µM	-0.813

COc1cc(C=O)cc2c1C(COC(N)=O)C1(OC(C)=O)ON2CC2C1N2C(C)=O (stereo unspecified)
Details	LDH release cytotoxicity [%]
0.03162 µM	-0.71
0.1 µM	-0.654
0.3162278 µM	1.14
1 µM	17.5
3.16228 µM	62.9
10 µM	67.8
31.6228 µM	73
100 µM	73.3

CC(C)(O)c1coc(S(=O)(=O)NC(=O)Nc2c3c(cc4c2CCC4)CCC3)c1
Details	LDH release cytotoxicity [%]
0.03162 µM	-0.467
0.1 µM	-0.342
0.3162278 µM	-0.339
1 µM	0.236
3.16228 µM	0.788
10 µM	0.179
31.6228 µM	0.394
100 µM	1.465

O=C(O)C(F)(F)C(F)(F)C(F)(F)C(F)(F)C(F)(F)C(F)(F)C(F)(F)F [Perfluorooctanoic acid]
Details	LDH release cytotoxicity [%]
0.03162 µM	-0.867
0.1 µM	-1.32
0.3162278 µM	-1.53
1 µM	-1.76
3.16228 µM	-0.724
10 µM	-1.14
31.6228 µM	-1.29
100 µM	1.94

O=C(NC(=O)c1c(F)cccc1F)Nc1cc(Cl)c(OC(F)(F)C(F)F)c(Cl)c1 [Hexaflumuron]
Details	LDH release cytotoxicity [%]
0.03162 µM	-0.197
0.1 µM	-1
0.3162278 µM	-1.85
1 µM	-1.29
3.16228 µM	-1.24
10 µM	-0.349
31.6228 µM	-0.129
100 µM	4.86

Cc1cc(O)ccc1Cl [4-Chloro-3-methylphenol]
Details	LDH release cytotoxicity [%]
0.03162 µM	-0.825
0.1 µM	-0.387
0.3162278 µM	-0.309
1 µM	-0.443
3.16228 µM	0.57
10 µM	0.611
31.6228 µM	0.786
100 µM	2.48

CCCCCCCCCCCCCN1CC(C)OC(C)C1 (stereo unspecified) [Tridemorph]
Details	LDH release cytotoxicity [%]
0.0322552 µM	-2.04
0.102 µM	-2.33
0.322552 µM	-1.56
1.02 µM	-2.46
3.2255232 µM	-1.14
10.2 µM	-0.844
32.2552 µM	-0.534
102 µM	71.8

CC(=O)C1(O)CCC2C3CCC4=CC(=O)CCC4(C)C3CCC21C (stereo not drawn) [17alpha-Hydroxyprogesterone]
Details	LDH release cytotoxicity [%]
0.03162 µM	-0.419
0.1 µM	-1.4
0.3162278 µM	-2.18
1 µM	-1.25
3.16228 µM	-0.766
10 µM	0.609
31.6228 µM	-0.397
100 µM	0.684

ClC(Cl)=C(c1ccc(Cl)cc1)c1ccc(Cl)cc1 [p,p'-DDE]
Details	LDH release cytotoxicity [%]
0.03162 µM	-0.311
0.1 µM	-0.017
0.3162278 µM	-0.636
1 µM	-0.675
3.16228 µM	0.0542
10 µM	-0.0981
31.6228 µM	0.0466
100 µM	0.471

CC1=C2CC3C(CC=C4CC(O)CCC43C)C2CCC12OC1CC(C)CNC1C2C (stereo unspecified) [Cyclopamine]
Details	LDH release cytotoxicity [%]
0.015811 µM	-1.27
0.05 µM	-3.64
0.158114 µM	-4.31
0.5 µM	-4.01
1.58114 µM	-4.1
5 µM	-3.94
15.8114 µM	-2.45
50 µM	0.363

CCCCOC(=O)C(C)Oc1ccc(Oc2ccc(C#N)cc2F)cc1 (stereo unspecified) [Cyhalofop-butyl]
Details	LDH release cytotoxicity [%]
0.0314647 µM	-1.16
0.0995 µM	-1.07
0.3146466 µM	-0.775
0.995 µM	-1.29
3.14647 µM	-0.485
9.95 µM	0.552
31.4647 µM	-0.564
99.5 µM	0.894

CCCC1=NC(=S)NC(=O)C1 [6-Propyl-2-thiouracil]
Details	LDH release cytotoxicity [%]
0.03162 µM	-1.25
0.1 µM	-1.68
0.3162278 µM	-2.72
1 µM	-2.49
3.16228 µM	-2.28
10 µM	-1.9
31.6228 µM	-1.25
100 µM	0.0182

CC(=O)c1ccc2c(c1)C(NC(=O)c1ccc(F)cc1)C(O)C(C)(C)O2 (stereo unspecified) [Carabersat]
Details	LDH release cytotoxicity [%]
0.0308322 µM	-0.845
0.0975 µM	-1.53
0.308322 µM	-2.26
0.975 µM	-2.21
3.0832207 µM	-1.81
9.75 µM	-1.6
30.832207 µM	-1.02
97.5 µM	0.388

CCOC(=O)COc1ccc2c(c1)CC(NCC(O)c1cccc(Cl)c1)CC2 (stereo unspecified)
Details	LDH release cytotoxicity [%]
0.02893 µM	-1.56
0.0915 µM	0.00613
0.289348 µM	-0.98
0.915 µM	-1.71
2.89348 µM	-1.72
9.15 µM	-1.13
28.9348 µM	1.91
91.5 µM	10.4

CCn1nc(C)c2c1C(=O)NCC(c1ccc(O)cc1)=N2
Details	LDH release cytotoxicity [%]
0.03162 µM	-0.976
0.1 µM	-1.16
0.3162278 µM	-0.653
1 µM	-0.0547
3.16228 µM	0.209
10 µM	0.546
31.6228 µM	1.6
100 µM	3.89

O=C(O)C1(c2ccc3c(c2)OCC(Cc2ccc(-c4ccccc4)cc2)C3O)CCCC1 (stereo unspecified)
Details	LDH release cytotoxicity [%]
0.03162 µM	-0.731
0.1 µM	-0.599
0.3162278 µM	-0.19
1 µM	-0.676
3.16228 µM	-0.648
10 µM	0.306
31.6228 µM	2.92
100 µM	72.9

O=S(=O)(O)c1ccc(N=Nc2c(O)ccc3cc(S(=O)(=O)O)ccc23)cc1 [FD&C Yellow 6]
Details	LDH release cytotoxicity [%]
0.03162 µM	-2.21
0.1 µM	-2.28
0.3162278 µM	-3.01
1 µM	-3.07
3.16228 µM	-4.37
10 µM	-4.81
31.6228 µM	-4.8
100 µM	-4.65

CC(C)NCC(O)c1ccc(O)c(O)c1 (stereo unspecified) [Isoproterenol hydrochloride]
Details	LDH release cytotoxicity [%]
0.03162 µM	-1.33
0.1 µM	-0.922
0.3162278 µM	0.959
1 µM	2.34
3.16228 µM	2.16
10 µM	-0.0702
31.6228 µM	-1.75
100 µM	-1.61

O=C(Nc1ccccc1)Nc1ccnc(Cl)c1 [Forchlorfenuron]
Details	LDH release cytotoxicity [%]
0.03162 µM	-0.561
0.1 µM	-0.953
0.3162278 µM	-0.719
1 µM	-0.995
3.16228 µM	-0.25
10 µM	-0.369
31.6228 µM	6.54
100 µM	61.5

OCCOCCOCCO [Triethylene glycol]
Details	LDH release cytotoxicity [%]
0.03162 µM	-0.151
0.1 µM	-1.04
0.3162278 µM	-0.871
1 µM	-1.23
3.16228 µM	-1.32
10 µM	-0.871
31.6228 µM	-1.1
100 µM	0.204

CCCCOC(=O)CCCCC(=O)OCCCC [Dibutyl adipate]
Details	LDH release cytotoxicity [%]
0.0317809 µM	-0.761
0.1005 µM	-1.45
0.317809 µM	-1.74
1.005 µM	-1.12
3.17809 µM	-1.24
10.05 µM	-0.568
31.7809 µM	0.579
100.5 µM	2.35

CC1(C)C(C(=O)OC(C#N)c2cccc(Oc3ccccc3)c2)C1(C)C (stereo unspecified) [Fenpropathrin]
Details	LDH release cytotoxicity [%]
0.03162 µM	-1.16
0.1 µM	-1.28
0.3162278 µM	0.259
1 µM	-1.32
3.16228 µM	-1.08
10 µM	-0.114
31.6228 µM	0.399
100 µM	1.44

CCCCC(CC)COC(=O)CC(C(=O)OCC(CC)CCCC)S(=O)(=O)O (stereo unspecified) [Docusate sodium]
Details	LDH release cytotoxicity [%]
0.03162 µM	-1.66
0.1 µM	-0.373
0.3162278 µM	-0.361
1 µM	-0.887
3.16228 µM	-0.195
10 µM	-1.39
31.6228 µM	1.52
100 µM	75.5

C[Si]1(C)O[Si](C)(C)O[Si](C)(C)O[Si](C)(C)O1 [Octamethylcyclotetrasiloxane]
Details	LDH release cytotoxicity [%]
0.03162 µM	-1.66
0.1 µM	-2.19
0.3162278 µM	-0.981
1 µM	-1.15
3.16228 µM	-1.27
10 µM	-0.835
31.6228 µM	-1.36
100 µM	1.7

CC12C=CC3=C4CCC(=O)C=C4CCC3C1CCC2O (stereo not drawn) [17beta-Trenbolone]
Details	LDH release cytotoxicity [%]
0.03162 µM	-1.81
0.1 µM	-1.96
0.3162278 µM	-2.23
1 µM	-1.89
3.16228 µM	-1.55
10 µM	-1.02
31.6228 µM	-1.05
100 µM	0.211

CCCCCCCCCCCCCCO [1-Tetradecanol]
Details	LDH release cytotoxicity [%]
0.03162 µM	-1.1
0.1 µM	-2.17
0.3162278 µM	-0.313
1 µM	-2.29
3.16228 µM	-2.1
10 µM	-1.49
31.6228 µM	-1.69
100 µM	6.5

C=CC(N)=O [Acrylamide]
Details	LDH release cytotoxicity [%]
0.03162 µM	-0.83
0.1 µM	-1.21
0.3162278 µM	-1.5
1 µM	-1.596
3.16228 µM	-1.78
10 µM	-0.843
31.6228 µM	-1.75
100 µM	-0.493

C/C=C/c1ccc(OC)cc1 [(E)-Anethole]
Details	LDH release cytotoxicity [%]
0.03162 µM	-0.814
0.1 µM	-0.865
0.3162278 µM	-1.3
1 µM	-0.855
3.16228 µM	-1.25
10 µM	-0.44
31.6228 µM	-0.316
100 µM	1.16
